Data reported in patent US20250059220A1, “SUBSTITUTED BENZOTHIOPHENE DERIVATIVES AND METHODS OF USE THEREOF” (Merck Sharp & Dohme LLC, priority 2021, published 2025).
pIC50: −log10 of the molar value.

How the values were obtained:
human PTPN1 (1-435) = human PTPN1 (1-435) (Homo sapiens (Human), UniProt P18031); assay: Human PTPN1 Biochemical Assay; conditions: DiFMUP substrate, read-out: PTP1B IC50
Outline: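 Read-out is DiFMUP hydrolysis fluorescence (360 nm excitation, 460 nm emission) after 1 h at room temperature, following 30 min enzyme–compound preincubation.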

human PTPN2 (1-387) = human PTPN2 (1-387) (Homo sapiens (Human), UniProt P17706); assay: Human PTPN2 Biochemical Assay; conditions: DiFMUP substrate
human PTPN2 (1-387), sequence (P17706 other isoform, or with tags, fused parts or gaps): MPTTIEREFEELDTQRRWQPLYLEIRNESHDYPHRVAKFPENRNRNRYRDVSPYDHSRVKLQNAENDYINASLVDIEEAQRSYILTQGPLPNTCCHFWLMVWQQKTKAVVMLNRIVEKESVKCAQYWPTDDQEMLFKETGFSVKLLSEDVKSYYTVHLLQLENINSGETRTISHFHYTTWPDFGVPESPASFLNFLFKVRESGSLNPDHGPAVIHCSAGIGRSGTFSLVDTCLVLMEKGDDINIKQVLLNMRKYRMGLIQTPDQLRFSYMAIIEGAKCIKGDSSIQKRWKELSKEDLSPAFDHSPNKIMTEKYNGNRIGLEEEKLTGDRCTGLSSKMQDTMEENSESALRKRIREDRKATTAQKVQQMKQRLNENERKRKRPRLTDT
Outline: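 Human PTPN2 (1-387) preincubated 30 min at RT with compound (10-point 3-fold series) in Tris pH 7.4 buffer with 0.5 mM DTT, then DiFMUP substrate added for 1 h at RT. Fluorescence at ex 360/em 460 nm, normalised to no-enzyme and enzyme controls; EC50 from 4-parameter fit.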

human PTPN1 (1-435), sequence (P18031 whole entry): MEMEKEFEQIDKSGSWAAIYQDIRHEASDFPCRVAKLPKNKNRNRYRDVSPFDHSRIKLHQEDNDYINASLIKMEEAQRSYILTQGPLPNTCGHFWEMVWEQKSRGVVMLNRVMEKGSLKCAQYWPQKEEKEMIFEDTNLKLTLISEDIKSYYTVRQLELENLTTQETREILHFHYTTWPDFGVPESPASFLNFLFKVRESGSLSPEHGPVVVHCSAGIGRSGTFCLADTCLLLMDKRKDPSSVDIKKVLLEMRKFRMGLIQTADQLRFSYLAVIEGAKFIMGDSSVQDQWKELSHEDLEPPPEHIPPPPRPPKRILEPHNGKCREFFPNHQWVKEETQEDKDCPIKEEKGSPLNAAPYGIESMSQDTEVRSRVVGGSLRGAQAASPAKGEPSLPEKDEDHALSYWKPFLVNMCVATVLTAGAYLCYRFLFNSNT

pIC50 (human PTPN1 (1-435))	pIC50 (human PTPN2 (1-387))	Compound
5.61	5.49	O=P(O)(O)C(F)(F)c1sc2c(NCCC3CCCCC3)cccc2c1Br [Compound 223, ((3-bromo-7-((2-cyclohexylethyl)amino)benzo[b]thiophen-2-yl)difluoromethyl)phosphonic acid]
5.87	5.67	COc1cccc(NC(=O)c2ccc3sc(C(F)(F)P(=O)(O)O)c(Br)c3c2)c1 [Compound 24]
5.54	5.69	O=C(NCc1c[nH]cn1)c1ccc2sc(C(F)(F)P(=O)(O)O)c(Br)c2c1 [Compound 218]
5.16	5.05	Cc1c(NC(=O)c2ccc3sc(C(F)(F)P(=O)(O)O)c(Br)c3c2)cccc1C(=O)N1CCCC1 [Compound 106]
6.40	6.47	NC(=O)c1cc(OCCC(F)(F)F)c2sc(C(F)(F)P(=O)(O)O)c(Br)c2c1 [Compound 271]
5.42	5.30	O=C(NCc1cccnc1C(F)(F)F)c1ccc2sc(C(F)(F)P(=O)(O)O)c(Br)c2c1 [Compound 120]
8.12	8.16	C[C@@H](NC(=O)c1cc(OCCCC(F)(F)F)c2sc(C(F)(F)P(=O)(O)O)c(Br)c2c1)c1cccnn1 [Compound 208]
8.51	8.45	O=P(O)(O)C(F)(F)c1sc2c(OCC3CC3(F)F)cc(-c3cnn[nH]3)cc2c1Br (stereo not drawn) [Compound 368]
7.70	7.78	NC(=O)c1cc(OCCCS(N)(=O)=O)c2sc(C(F)(F)P(=O)(O)O)c(Br)c2c1 [Compound 235, ((3-bromo-5-carbamoyl-7-(3-sulfamoylpropoxy)benzo[b]thiophen-2-yl)difluoromethyl)phosphonic acid]
5.29	5.14	O=C(NCC1CC1)c1ccc2sc(C(F)(F)P(=O)(O)O)c(Br)c2c1 [Compound 16]
6.44	6.36	O=C(NCc1cccnn1)c1cc(F)c2sc(C(F)(F)P(=O)(O)O)c(Br)c2c1 [Compound 164]
5.49	5.39	O=C(NCCC1CCCCC1)c1ccc2sc(C(F)(F)P(=O)(O)O)c(Br)c2c1 [Compound 53]
5.50	5.44	O=C(NCc1cccnn1)c1cc(O)c2sc(C(F)(F)P(=O)(O)O)c(Br)c2c1 [Compound 166]
5.04	5.19	O=C(Nc1cccc(CO)n1)c1ccc2sc(C(F)(F)P(=O)(O)O)c(Br)c2c1 [Compound 104]
6.94	7.56	CC(Cn1ccc2ccccc21)NC(=O)c1ccc2sc(C(F)(F)P(=O)(O)O)c(Br)c2c1 (stereo not drawn) [Compound 81]
6.29	6.16	O=P(O)(O)C(F)(F)c1sc2c(OCCCC(F)(F)F)cc(CO)cc2c1Br [Compound 408]
7.74	7.83	NC(=O)c1cc(OCCCS(N)(=O)=O)c2sc(C(F)(F)P(=O)(O)O)c(C(F)(F)F)c2c1 [Compound 446]
7.10	7.22	NC(=O)c1cc(OCc2ccccc2F)c2sc(C(F)(F)P(=O)(O)O)c(Br)c2c1 [Compound 242]
5.62	5.66	Cn1cc(CCNC(=O)c2ccc3sc(C(F)(F)P(=O)(O)O)c(Br)c3c2)c2ccccc21 [Compound 155]
8.29	8.21	Cc1c(C(F)(F)P(=O)(O)O)sc2c(OCCCS(N)(=O)=O)cc(-c3nc[nH]n3)cc12 [Compound 443]
7.21	7.00	NC(=O)c1cc(OCC2CC(OC(F)(F)F)C2)c2sc(C(F)(F)P(=O)(O)O)c(Br)c2c1 (stereo not drawn) [Compound 280]
8.59	8.60	CS(=O)(=O)CCCOc1cc(-c2cnn[nH]2)cc2c(Br)c(C(F)(F)P(=O)(O)O)sc12 [Compound 364]
6.32	6.36	Cc1c(C(F)(F)P(=O)(O)O)sc2c(OCC3CC3(F)F)cc(C(N)=O)cc12 (stereo not drawn) [Compound 434]

pIC50 (human PTPN1 (1-435))	pIC50 (human PTPN2 (1-387))	Compound
5.43	5.37	O=C1CCC(CNC(=O)c2ccc3sc(C(F)(F)P(=O)(O)O)c(Br)c3c2)N1 (stereo not drawn) [Compound 136]
5.14	4.77	NC(=O)c1ccc2c(Br)c(C(F)(F)P(=O)(O)O)sc2c1 [Compound 300, ((3-bromo-6-carbamoylbenzo[b]thiophen-2-yl)difluoromethyl)phosphonic acid]
5.74	5.68	O=C(NCc1cncc(C(F)(F)F)c1)c1ccc2sc(C(F)(F)P(=O)(O)O)c(Br)c2c1 [Compound 30]
5.61	5.51	CS(=O)(=O)N1CCC(NC(=O)c2ccc3sc(C(F)(F)P(=O)(O)O)c(Br)c3c2)CC1 [Compound 44]
7.03	7.26	NC(=O)c1cc(OCc2cc(F)cc(C(F)(F)F)c2)c2sc(C(F)(F)P(=O)(O)O)c(Br)c2c1 [Compound 247]
7.63	7.60	NC(=O)c1cc(OCCCCS(N)(=O)=O)c2sc(C(F)(F)P(=O)(O)O)c(Br)c2c1 [Compound 308]
5.39	5.44	O=C(Nc1ccccc1OC1CCOCC1)c1ccc2sc(C(F)(F)P(=O)(O)O)c(Br)c2c1 [Compound 108]
6.71	6.93	Cc1ccc(COc2cc(C(N)=O)cc3c(Br)c(C(F)(F)P(=O)(O)O)sc23)cc1C(F)(F)F [Compound 344]
7.85	7.91	O=P(O)(O)C(F)(F)c1sc2c(OCC3CC3(F)F)cc(-c3cnn[nH]3)cc2c1Br (stereo not drawn) [Compound 367]
5.83	5.74	O=C(NCc1c[nH]nn1)c1ccc2sc(C(F)(F)P(=O)(O)O)c(Br)c2c1 [Compound 140]
5.46	5.18	O=P(O)(O)C(F)(F)c1sc2ccc(OCCc3ccccc3)cc2c1Br [Compound 221, ((3-bromo-5-phenethoxybenzo[b]thiophen-2-yl)difluoromethyl)phosphonic acid]
7.59	7.79	CC(C)(O)CCCOc1cc(C(N)=O)cc2c(Br)c(C(F)(F)P(=O)(O)O)sc12 [Compound 306]
5.37	5.31	O=C(NC(c1ccccc1)c1cccnc1)c1ccc2sc(C(F)(F)P(=O)(O)O)c(Br)c2c1 (stereo not drawn) [Compound 65]
5.67	5.56	O=C(NC(c1ccc(F)cc1)C(F)F)c1ccc2sc(C(F)(F)P(=O)(O)O)c(Br)c2c1 (stereo not drawn) [Compound 117]
7.26	7.27	CCCCCOc1cc(C(N)=O)cc2c(Br)c(C(F)(F)P(=O)(O)O)sc12 [Compound 239]
7.13	7.04	NC(=O)c1cc(OC[C@@H]2C[C@@H]2F)c2sc(C(F)(F)P(=O)(O)O)c(Br)c2c1 [Compound 378]
5.35	5.23	N#CCCCNC(=O)c1ccc2sc(C(F)(F)P(=O)(O)O)c(Br)c2c1 [Compound 34]
6.14	5.95	CC(=O)N1CCc2ccc(NC(=O)c3ccc4sc(C(F)(F)P(=O)(O)O)c(Br)c4c3)cc21 [Compound 77]
5.76	5.63	O=C(Nc1ccc(OCC2CCCO2)cc1)c1ccc2sc(C(F)(F)P(=O)(O)O)c(Br)c2c1 (stereo not drawn) [Compound 26]
5.38	5.36	CC(C)C1CC(CNC(=O)c2ccc3sc(C(F)(F)P(=O)(O)O)c(Br)c3c2)C1 (stereo not drawn) [Compound 93]
6.88	7.12	NC(=O)c1cc(OCc2ccc(F)cc2OC(F)F)c2sc(C(F)(F)P(=O)(O)O)c(Br)c2c1 [Compound 342]
5.56	5.41	O=C(NC1CCC(F)(F)CC1)c1ccc2sc(C(F)(F)P(=O)(O)O)c(Br)c2c1 [Compound 36]
5.96	5.92	C[C@@H](NC(=O)c1ccc2sc(C(F)(F)P(=O)(O)O)c(Br)c2c1)c1cccnn1 [Compound 130]

Compound	pIC50 (human PTPN1 (1-435))	pIC50 (human PTPN2 (1-387))
CC(NC(=O)c1ccc2sc(C(F)(F)P(=O)(O)O)c(Br)c2c1)c1ccon1 (stereo not drawn) [Compound 194]	5.76	5.50
N#Cc1cc(C(=O)NCc2cccnn2)cc2c(Br)c(C(F)(F)P(=O)(O)O)sc12 [Compound 161]	6.35	6.46
O=C(NCc1ncc[nH]1)c1ccc2sc(C(F)(F)P(=O)(O)O)c(Br)c2c1 [Compound 174]	5.07	5.38
CC(=O)NCc1cc(OCCCC(F)(F)F)c2sc(C(F)(F)P(=O)(O)O)c(Br)c2c1 [Compound 449, ((5-(acetamidomethyl)-3-bromo-7-(4,4,4-trifluorobutoxy)benzo[b]thiophen-2-yl)difluoromethyl)phosphonic acid]	6.09	5.92
CNS(=O)(=O)c1cc(OCCCC(F)(F)F)c2sc(C(F)(F)P(=O)(O)O)c(Br)c2c1 [Compound 459, ((3-bromo-5-(N-methylsulfamoyl)-7-(4,4,4-trifluorobutoxy)benzo[b]thiophen-2-yl)difluoromethyl)phosphonic acid]	6.21	6.05
O=P(O)(O)C(F)(F)c1sc2c(OCCCC(F)(F)F)cc(-c3cnn[nH]3)cc2c1Br [Compound 258, ((3-bromo-5-(1H-1,2,3-triazol-5-yl)-7-(4,4,4-trifluorobutoxy)benzo[b]thiophen-2-yl)difluoromethyl)phosphonic acid]	8.37	8.08
O=P(O)(O)C(F)(F)c1sc2c(OCCCC(F)(F)F)c(F)ccc2c1Br [Compound 231, ((3-bromo-6-fluoro-7-(4,4,4-trifluorobutoxy)benzo[b]thiophen-2-yl)difluoromethyl)phosphonic acid]	6.06	6.00
CCc1nc(CNC(=O)c2ccc3sc(C(F)(F)P(=O)(O)O)c(Br)c3c2)no1 [Compound 195]	5.56	5.26
